Values after ≈ are worked out from the molar mass of the structure shown. Numbered stars: 1 amine (or outer) side, 2 acyl side, 3 side chain; on linkers, the order of the positions; unused ones are H or OH. Bridge positions count the residues as written; N and C are the ends. Square brackets hold non-standard residues; d marks the D form. Peptide text beside a SMILES is read from it. * marks the point of attachment. ξ: configuration not given here. Asp(3S-OH) = N[C@H](C(=O)O)[C@H](O)C(=O)O; Thr(4-Cl) = N[C@H](C(=O)O)[C@H](O)CCl; ξAsp(3ξ-OH) = NC(C(=O)O)C(O)C(=O)O; X3 = O=C(C(N[*:1])C(O)CCl)[*:2]; X1 = CCCCCCCCC[C@@H](O)CC(=O)*; X2 = CCCCCCCCCCCC(O)CC(=O)*; dDab = NCC[C@@H](N)C(=O)O; Dab = NCC[CH](N)C(=O)O; Orn = NCCC[CH](N)C(=O)O; hSer = N[CH](CCO)C(=O)O; Dhb = C/C=C(\N)C(=O)O

Consider two compounds from patent US5830855A, “Lipodepsipeptides as antifungal and fungicidal agents” (priority 1996, dated 1998).

What all share (assay type): cell-based
One assay deals with Aspergillus fumigatus. Put plainly: Broth microdilution MIC. To be noted: Table 1 (MICs), 16 isolates, 48 hr. How it is done: (§1) Medium: Liquid RPMI 1640 (RPMI) medium with L-glutamine and without sodium bicarbonate (Sigma Chemical Co., R-6504; St. Louis, Mo.) buffered with 0.165M MOPS (34.54 g/liter) was used for in vitro antifungal tests. The medium was adjusted to pH 7.0 with 10M NaOH and filter sterilized.
(§2) Lipodepsipeptide Dilutions: All stock drug solution concentrations were at least 10-fold higher than the highest concentration tested. AmB, ketoconazole, and the test compounds (SR-E, ST-B, and SS-A) were dissolved in sterile distilled water, 0.2N HCl, and 0.001N HCl, respectively. Each stock solution was diluted to 2× the highest concentration of drug tested with RPMI. Two-fold dilutions were made with RPMI medium.
(§3) Preparation of Inoculum Suspensions: On Sabouraud dextose agar (SDA; BBL, Becton and Dickinson and Co., Cockeysville, Md.) all isolates were subcultured at least twice before use to ensure purity and viability. Candida spp. and Saccharomyces cerevisiae were grown for 24 hr at 35° C. Isolates of Cryptococcus neoformans were grown for 48 hr at 35° C. Yeast cells from at least five 1-mm-diameter colonies were suspended in 5 ml of sterile 0.85% saline. The resulting suspension was vortexed for 15 sec. The turbidity of each mixed suspension was measured at 530 nm and adjusted to 1×10^6 to 5×10^6 CFU/ml by the NCCLS spectrophotometric method described by National Committee for Clinical Laboratory Standards. 1992. Reference method for broth dilution antifungal susceptibility testing of yeasts; proposed standard, NCCLS document M27-P (ISBN 1-56238-186-5). NCCLS, Villanova. The final transmission of each yeast suspension ranged from 85-87%.
(§4) Aspergillus fumigatus and Mucor spp. were grown for 1 wk at 35° C. The dermatophytes, Microsporum spp. and Trichophyton spp., were grown for two wk at 30° C. Fungal spores were washed from the plates of all good spore formers (A. fumigatus, Mucor spp., Microsporum canis and Trichophyton spp.) by placing 5 ml of 0.85% saline with 0.2% Tween 80 on the plates and mixing with an inoculating loop. The spore/mycelium suspension was drawn off with a pipette and allowed to settle for at least 5 min. For the poor spore-forming Microsporum audouinii, the procedure was the same except the spore/mycelial suspension was homogenized with a ground glass tissue homogenizer and then allowed to settle for at least 5 min. A small amount of the supernatant was transferred to 5 ml of sterile saline and vortexed. The stock suspensions of all filamentous fungi were measured at 530 nm and adjusted to 85-87% transmission. The concentration (1×10^6 to 5×10^6 CFU/ml) was determined by hemacytometer count or plate count on SDA. All stock suspensions were diluted 1000-fold with RPMI, or 2× the final desired test inocula. The 2× inoculum was diluted 1:1 when the wells were inoculated, and the desired inoculum size was achieved.
(§5) Broth Microdilution Test: Broth microdilution tests were performed using sterile, disposable, multiwell microdilution plates (96 round U-bottom wells) (Falcon 3077; Becton and Dickinson Labware, Lincoln Park, N.J.). The drugs (2× concentrations) were dispensed into the wells of rows number 1 to 10 of the microdilution plates in 100 μl volumes from highest drug concentration to lowest drug concentration. Each well was inoculated with 100 μl of the corresponding 2× concentrated fungal suspension. The wells of row 11 contained the inoculum with drug-free media as a positive growth control and the wells of row 12 contained uninoculated-drug-free medium as a sterility control.
(§6) Incubation and Scoring of MIC: All cultures were incubated without shaking at the temperature used during subculture. Incubation times were 48 hr for Candida spp., S. cerevisiae, A. fumigatus, and Mucor spp; 72 hr for C. neoformans; and 7 days for Microsporum and Trichophyton spp. […]
(In general: Broth dilution looks for growth in wells or tubes with falling amounts of substance.)

Assay [1] has as its system Candida albicans. Put plainly: Broth microdilution MIC. Conditions: Table 1 (MICs); Candida albicans, 20 isolates; RPMI pH 7.0, 48 hr; Ktz read at score 2, others at score 0. Here is the method: as §1, §2, §3, §4, §5, §6
Assay [2] has as its system Candida kefyr. Kind of assay: Broth microdilution MIC. Conditions: Table 1 (MICs), 1 isolate, 48 hr. Here is the method:
as §1, §2, §3, §4, §5, §6

Assay [3] concerns Candida krusei. Put plainly: Broth microdilution MIC. Conditions: Table 1 (MICs), 2 isolates, 48 hr. Here is the method: as §1, §2, §3, §4, §5, §6
Assay [4] deals with Candida lusitaniae. Put plainly: Broth microdilution MIC. To be noted: Table 1 (MICs), 2 isolates, 48 hr. How it is done: as §1, §2, §3, §4, §5, §6
For assay [5], the system named is Candida parapsilosis. Kind of assay: Broth microdilution MIC. Conditions: Table 1 (MICs), 2 isolates, 48 hr. How it is done:
as §1, §2, §3, §4, §5, §6

In assay [6] the test system is Candida rugosa. Kind of assay: Broth microdilution MIC. Conditions: Table 1 (MICs); Candida rugosa, 2 isolates; 48 hr. How it is done:
as §1, §2, §3, §4, §5, §6

Assay [7] has as its system Candida tropicalis. Kind of assay: Broth microdilution MIC. Conditions: Table 1 (MICs); Candida tropicalis, 2 isolates; 48 hr. Here is the method:
as §1, §2, §3, §4, §5, §6

Assay [8] deals with Cryptococcus neoformans. Kind of assay: Broth microdilution MIC. Conditions: for MIC range: Table 1 (MICs), Cryptococcus neoformans, 14 isolates, 72 hr. How it is done:
as §1, §2, §3, §4, §5, §6

Assay [9] relates to Microsporum spp. Kind of assay: Broth microdilution MIC. Conditions: Table 1 (MICs), 2 isolates, 7 days. How it is done:
as §1, §2, §3, §4, §5, §6

The subject of assay [10] is Saccharomyces cerevisiae. Kind of assay: Broth microdilution MIC. Conditions: Table 1 (MICs), 1 strain tested more than once (control ATCC 36375), 48 hr. Here is the method:
as §1, §2, §3, §4, §5, §6

The subject of assay [11] is Trichophyton spp. Kind of assay: Broth microdilution MIC. To be noted: Table 1 (MICs), 3 isolates, 7 days. How it is done: as §1, §2, §3, §4, §5, §6
Assay [12] has as its system Candida albicans. Put plainly: Minimum Fungicidal Concentration (MFC). To be noted: Table 2, 20 isolates, subculture on drug-free SDA 24 hr. Here is the method: as §1, §2, §3, §4, §5, §6
In assay [13] the test system is Candida kefyr. Kind of assay: Minimum Fungicidal Concentration (MFC). Conditions: Table 2, 1 isolate, 24 hr. How it is done:
as §1, §2, §3, §4, §5, §6

Assay [14] has as its system Candida krusei. Kind of assay: Minimum Fungicidal Concentration (MFC). To be noted: Table 2, 2 isolates, 24 hr. How it is done: as §1, §2, §3, §4, §5, §6
Assay [15] concerns Candida lusitaniae. Put plainly: Minimum Fungicidal Concentration (MFC). Conditions: Table 2, 2 isolates, 24 hr. How it is done:
as §1, §2, §3, §4, §5, §6

For assay [16], the system named is Candida parapsilosis. Kind of assay: Minimum Fungicidal Concentration (MFC). To be noted: Table 2, 2 isolates, 24 hr. Here is the method:
as §1, §2, §3, §4, §5, §6

Assay [17] relates to Candida rugosa. Kind of assay: Minimum Fungicidal Concentration (MFC). Conditions: Table 2, 2 isolates, 24 hr. Here is the method: as §1, §2, §3, §4, §5, §6
In assay [18] the test system is Candida tropicalis. Put plainly: Minimum Fungicidal Concentration (MFC). Conditions: Table 2, 2 isolates, 24 hr. How it is done:
as §1, §2, §3, §4, §5, §6

The subject of assay [19] is Cryptococcus neoformans. Kind of assay: Minimum Fungicidal Concentration (MFC). To be noted: Table 2, 14 isolates, 48 hr. Here is the method:
as §1, §2, §3, §4, §5, §6

The subject of assay [20] is Microsporum spp. Put plainly: Minimum Fungicidal Concentration (MFC). To be noted: Table 2, 2 isolates, 7 d. How it is done: as §1, §2, §3, §4, §5, §6
For assay [21], the system named is Saccharomyces cerevisiae. Put plainly: Minimum Fungicidal Concentration (MFC). To be noted: Table 2, 1 strain tested more than once, 24 hr. How it is done: as §1, §2, §3, §4, §5, §6
For assay [22], the system named is Trichophyton spp. Kind of assay: Minimum Fungicidal Concentration (MFC). Conditions: Table 2, 3 isolates, 7 d. Here is the method:
as §1, §2, §3, §4, §5, §6

With `C/C=C1\NC(=O)[C@H](Cc2ccccc2)NC(=O)[C@H](CCCN=C(N)N)NC(=O)[C@@H](CCN)NC(=O)[C@H](CCN)NC(=O)[C@@H](CO)NC(=O)[C@@H](NC(=O)C[C@H](O)CCCCCCCCC)COC(=O)[C@H]([C@H](O)CCl)NC(=O)[C@H]([C@H](O)C(=O)O)NC1=O` [SR-E, Syringomycin-E] (X1-S[dS][Dab][dDab]RF[Dhb][Asp(3S-OH)][Thr(4-Cl)]; ester 1-C), the MIC range against Aspergillus fumigatus was 10 to 20 mg/L; against Candida albicans [1], 2.5 to 5 mg/L; in the assay with Candida lusitaniae [4] it was 2.5 mg/L (≈ 2.04 µM); with Candida parapsilosis [5], 2.5 mg/L (≈ 2.04 µM); against Candida rugosa [6], 5 to 20 mg/L; against Cryptococcus neoformans [8] it was 2.5 to 10 mg/L. Besides, the MIC range in the assay on Microsporum spp. [9] lay within 6.25 to 12.5 mg/L; against Trichophyton spp. [11], 3.1 to 6.25 mg/L. The results for the “MIC (μg/ml) range” value with Candida kefyr [2], against Candida krusei [3] and against Candida tropicalis [7] were 2.5 µg/mL (≈ 2.04 µM), 10 µg/mL (≈ 8.16 µM) and 2.5 to 5 µg/mL, respectively. Also, the “MFC (μg/ml) range” value with Saccharomyces cerevisiae [10] was 2.5 µg/mL (≈ 2.04 µM); in the assay with Candida albicans [12] it was 2.5 to 5 µg/mL; against Candida kefyr [13], 2.5 µg/mL (≈ 2.04 µM); in the assay with Candida krusei [14], 10 µg/mL (≈ 8.16 µM); in the assay on Candida lusitaniae [15], 2.5 to 5 µg/mL; in the assay on Candida parapsilosis [16], 2.5 µg/mL (≈ 2.04 µM). Besides, the “MFC (μg/ml) range” value in the assay with Candida rugosa [17] was 10 to 20 µg/mL; against Candida tropicalis [18], 5 µg/mL (≈ 4.08 µM); against Cryptococcus neoformans [19], 2.5 to 10 µg/mL; in the assay with Microsporum spp. [20], 6.25 to 12.5 µg/mL; against Saccharomyces cerevisiae [21] it was 2.5 µg/mL (≈ 2.04 µM); against Trichophyton spp. [22] it was 6.25 to 25 µg/mL.

Turning to `C/C=C1\NC(=O)C(C(C)O)NC(=O)C(CCCN)NC(=O)C(CCO)NC(=O)CNC(=O)C(CCN)NC(=O)C(NC(=O)CC(O)CCCCCCCCCCC)COC(=O)C(C(O)CCl)NC(=O)C(C(O)C(=O)O)NC1=O` (centres unmarked) [ST-B, Syringotoxin B] (X2-S[Dab]G[hSer][Orn]T[Dhb][ξAsp(3ξ-OH)][X3]; ester 1-C; configuration not given here), the MIC range in the assay with Aspergillus fumigatus is 6.25 to 25 mg/L; with Candida albicans [1], 3.2 to 12.5 mg/L; against Candida lusitaniae [4], 6.25 mg/L (≈ 5.5 µM); in the assay with Candida parapsilosis [5], 6.25 to 12.5 mg/L; against Candida rugosa [6], 3.2 to 25 mg/L; in the assay on Cryptococcus neoformans [8], 0.8 to 6.25 mg/L. The MIC range against Microsporum spp. [9] and against Trichophyton spp. [11] was 25 to 200 mg/L each time. Also, the “MIC (μg/ml) range” value in the assay with Candida kefyr [2] is 3.2 µg/mL (≈ 2.82 µM); against Candida krusei [3] it was 12.5 to 25 µg/mL; against Candida tropicalis [7], 3.2 µg/mL (≈ 2.82 µM). In the assay on Cryptococcus neoformans [8] (one strain of C. neoformans, very sensitive to ST-B, somewhat resistant to AmB), this compound displayed an MIC, one strain of C. neoformans of 0.8 mg/L. In addition, the “MFC (μg/ml) range” value against Saccharomyces cerevisiae [10] was 6.25 µg/mL (≈ 5.5 µM); with Candida albicans [12] it was 3.2 to 12.5 µg/mL; against Candida kefyr [13], 3.2 µg/mL (≈ 2.82 µM); in the assay on Candida krusei [14], 12.5 to 50 µg/mL; in the assay with Candida lusitaniae [15], 6.25 to 12.5 µg/mL; in the assay with Candida parapsilosis [16], 12.5 to 25 µg/mL. Moreover, the “MFC (μg/ml) range” value was 6.25 to 50 µg/mL against Candida rugosa [17]; 12.5 µg/mL (≈ 11 µM) against Candida tropicalis [18]; 0.8 to 12.5 µg/mL in the assay on Cryptococcus neoformans [19]; 25 to 200 µg/mL with Microsporum spp. [20]; 12.5 to 25 µg/mL in the assay with Saccharomyces cerevisiae [21]; 25 to 200 µg/mL with Trichophyton spp. [22].
